Reference: publication PMC11879692, “PDE4 inhibitor rolipram represses hedgehog signaling via ubiquitin-mediated proteolysis of GLI transcription factors to regress breast cancer” (The Journal of Biological Chemistry, 2025)

Key:
GLI1 = test: Immunohistochemistry of tumor tissue, GLI1; format: in vivo, BALB/c mice
Protocol: Solid tumors were developed in BALB/c mice (n = 3) except the control group (group I) by injecting 1 × 10^4 viable 4T1 (RRID: CVCL_0125) mice breast carcinoma cells (resuspended in 50 μl of PBS) into the inguinal fourth mammary fat pad, and the tumor was allowed to develop for 14 days ([37], [38]). Mice were randomly divided into three groups, viz., untreated tumor (group II), mice treated intraperitoneally with 1 mg//kg bodyweight of rolipram (group III), and mice receiving 5 mg/kg bodyweight of rolipram, intraperitoneally (group IV) ([39], [40]). After 14 days, the mice were sacrificed. Lung, kidney, liver, serum, and the tumors were collected for further experiments ([15]).
Mice mammary fat pad and mammary tumor tissues were processed as for histology, and 5 μm-thick sections were mounted on glass slides. The tissue sections were deparaffinized with xylene and hydrated with […] grades of alcohols (100% to 70%). Rehydrated sections were equilibrated in PBS. Antigen retrieval was performed by boiling the sections in a 0.1 M sodium citrate buffer (pH 6.0) for 10 min. […] The frequency (cell count) of positive and negative cells as well as the mean absorbance of the positive cells were plotted using MatPlotLib (RRID: SCR_008624), a Python (RRID: SCR_008394) 2D plotting library.

[1] = system: intracellular cAMP in MDA-MB-231 cells; test: cAMP assay (ELISA-based kit), intracellular cAMP; format: cell-based, human; details: 24 h, untreated 12.55 pmol/ml
Protocol: (§1) To determine the intracellular level of cAMP, a […] ELISA-based cAMP assay kit was used, which relies on preparation of a standard curve for cAMP (pmol/ml) and denoting all the experimental values from the standard curve, and finally expressing as mean values with standard errors of triplicate samples per treatment group. The assay kit was obtained from Cayman Chemicals (item no.: 581001), and the assay was performed following the manufacturer’s protocol after washing the cells with 1X PBS (composition: 137 mM NaCl, 2.7 mM KCl, 10 mM Na2HPO4, and 1.8 mM KH2PO4) and treating with 0.1 M HCl for 20 min and sonicating the cells for lysis. In brief, the cell lysate was added to the 96-well plate precoated with mouse monoclonal anti-rabbit IgG and which also contained cAMP–acetylcholinesterase (cAMP tracer) that competes with the free cAMP in the cell lysate to bind to the cAMP-specific rabbit antibody. Following several washes, the absorbance of the color generated because of addition of acetylcholinesterase substrate is measured at 412 nm by Bio-Rad iMark Microplate Reader (RRID: SCR_023799), which is inversely proportional to the amount of free cAMP present in the cell lysate ([29]).

[2] = system: intracellular cAMP in MCF-7 cells; test: cAMP assay (ELISA-based kit), intracellular cAMP; format: cell-based, human; details: 24 h, untreated control 14.1 pmol/ml
Protocol: as §1

MCF-7 cells [3] = test: Annexin V-FITC and PI double staining; format: cell-based, human; details: MCF-7, IC50 dose, 24 h
Protocol: (§2) To analyze if the cells have undergone necrosis or apoptosis because of 24 h of rolipram treatment, cells were double stained with Annexin V-FITC and PI using BD Pharmingen Annexin V:FITC Apoptosis Detection Kit (BD Biosciences; catalog no.: BD556547) using the manufacturer’s protocol. The data obtained from BD LSRFortessa flow cytometer (RRID: SCR_019600) were analyzed using BD FACSDiva 9.0 software ([31], [32]) (RRID: SCR_001456).

MDA-MB-231 cells [4] = test: Annexin V-FITC and PI double staining; format: cell-based, human; details: MDA-MB-231, IC50 dose, 24 h
Protocol: as §2

MCF-7 cells [5] = test: Flow cytometric analysis of DNA content (PI); format: cell-based, human; details: MCF-7, IC50 dose, 24 h, vs control
Protocol: (§3) After treating the cells with rolipram for 24 h, cells were stained with PI (BD Pharmingen PI/RNase Staining Buffer; BD Biosciences; catalog no.: BD550825), following fixing of cells with 70% ethanol for 1 h at 4°C and permeabilization with 0.1% Triton X-100 (Sigma–Aldrich; catalog no.: X100). The cells were then analyzed using BD LSRFortessa flow cytometer (RRID: SCR_019600), and the data were analyzed using BD FACSDiva 9.0 software ([30]) (RRID: SCR_001456).

MDA-MB-231 cells [6] = test: Flow cytometric analysis of DNA content (PI); format: cell-based, human; details: MDA-MB-231, IC50 dose, 24 h, vs control
Protocol: as §3

Question: For COc1ccc(C2CNC(=O)C2)cc1OC1CCCC1 (stereo not shown) [rolipram, Rolipram], which “reduction of GLI1 expression in tumor tissue” value (GLI1; 1 mg/kg bodyweight) is on record?
Answer: twofold

Question: What about the “reduction of GLI1 expression in tumor tissue” value (GLI1; 5 mg/kg bodyweight) of the same compound?
Answer: sixfold

Question: And the “intracellular cAMP level” value ([1]; MDA-MB-231, IC50 dose)?
Answer: 37.41 pmol/mL

Question: And the “intracellular cAMP level” value ([1]; MDA-MB-231, half IC50 dose)?
Answer: 28.35 pmol/mL

Question: And the “intracellular cAMP level” value ([2]; MCF-7, IC50 dose)?
Answer: 43.12 pmol/mL

Question: What about the “intracellular cAMP level” value ([2]; MCF-7, half IC50 dose) of the same compound?
Answer: 24.02 pmol/mL

Question: What about the “increase in the dead cell population” value (MCF-7 cells [3]) of the same compound?
Answer: 8.1%

Question: And the “increase in the dead cell population” value (MDA-MB-231 cells [4])?
Answer: 5.2%

Question: What about the G0/G1 cell population (MCF-7 cells [5]) of the same compound?
Answer: significantly increased

Question: And the G0/G1 cell population (MDA-MB-231 cells [6])?
Answer: significantly increased
